The nature of one data set: in vitro. Conditions: monkey, Vero cells.
The test system of the next data set is Aspergillus fumigatus. Put plainly: Antimicrobial activity against Aspergillus fumigatus ATCC 204305 by Alamar blue method. The class given is functional, organism-based.
A further data set has as its system Candida albicans. Kind of data set: Antimicrobial activity against Candida albicans ATCC 90028 by Alamar blue method. The class given is functional, organism-based.
The next data set concerns Pichia kudriavzevii. Kind of data set: Antimicrobial activity against Candida krusei ATCC 6258 by Alamar blue method. The data set is classed as functional, organism-based.
The next data set has as its system Cryptococcus neoformans. Put plainly: Antimicrobial activity against Cryptococcus neoformans ATCC 90113 by Alamar blue method. The data set is classed as functional, organism-based.
In the next data set the test system is Nakaseomyces glabratus. Put plainly: Antimicrobial activity against Candida glabrata by Alamar blue method. The data set is classed as functional, organism-based.
For data set [1], the system named is Saccharomyces cerevisiae. Put plainly: Antimicrobial activity against Saccharomyces cerevisiae expressing ydj1 mutant gene assessed as sensitivity at 50 umol/L by spectrophotometry. The class given is functional, organism-based.
For data set [2], the system named is Saccharomyces cerevisiae. Put plainly: Antimicrobial activity against Saccharomyces cerevisiae expressing snf2 mutant gene assessed as sensitivity at 50 umol/L by spectrophotometry. The data set is classed as functional, organism-based.
The subject of data set [3] is Saccharomyces cerevisiae. Kind of data set: Antimicrobial activity against wild type Saccharomyces cerevisiae assessed as sensitivity at 50 umol/L by spectrophotometry. The class given is functional, organism-based.
Data set [4] has as its system Saccharomyces cerevisiae. Kind of data set: Antimicrobial activity against Saccharomyces cerevisiae expressing rad52 mutant gene assessed as increase in sensitivity at 20 umol/L by spectrophotometry relative to wild type. The data set is classed as functional.
For data set [5], the system named is Saccharomyces cerevisiae. Kind of data set: Antimicrobial activity against Saccharomyces cerevisiae expressing ydj1 mutant gene assessed as sensitivity at 20 umol/L by spectrophotometry. The data set is classed as functional, organism-based.
In data set [6] the test system is Saccharomyces cerevisiae. Kind of data set: Antimicrobial activity against Saccharomyces cerevisiae expressing msh2 mutant gene assessed as sensitivity at 50 umol/L by spectrophotometry. The class given is functional, organism-based.
The subject of data set [7] is Saccharomyces cerevisiae. Put plainly: Antimicrobial activity against Saccharomyces cerevisiae expressing msh2 mutant gene assessed as sensitivity at 20 umol/L by spectrophotometry. The class given is functional, organism-based.
The test system of data set [8] is Saccharomyces cerevisiae. Put plainly: Antimicrobial activity against Saccharomyces cerevisiae expressing snf2 mutant gene assessed as increase in sensitivity at 20 umol/L by spectrophotometry relative to wild type. The data set is classed as functional.
Data set [9] deals with Saccharomyces cerevisiae. Put plainly: Antimicrobial activity against Saccharomyces cerevisiae expressing msh2 mutant gene assessed as increase in sensitivity measured as survival at 20 umol/L by spectrophotometry relative to wild type. The data set is classed as functional.
Data set [10] deals with Saccharomyces cerevisiae. Put plainly: Antimicrobial activity against Saccharomyces cerevisiae expressing rad52 mutant gene assessed as sensitivity at 50 umol/L by spectrophotometry. The data set is classed as functional, organism-based.
Data set [11] can be described thus: Selectivity index, ratio of TC50 for african green monkey Vero cells to MIC for Aspergillus fumigatus ATCC 204305. The data set is classed as toxicity, cell-based. Conditions: read-out: Selectivity Index.

≈ marks a conversion by molar mass, not a printed value. Calls of active or inactive are those of the source. The calls are words filed in the database; no cut-off is given here.

Description for in vitro: Selectivity index, ratio of TC50 for african green monkey Vero cells to IC50 for Aspergillus fumigatus ATCC 204305

On to `C[C@@H]1[C@H](O)[C@@H](C)/C=C/C=C/C=C/C=C/C=C/C=C/C=C/[C@H](O[C@@H]2O[C@H](C)[C@@H](O)[C@H](N)[C@@H]2O)C[C@@H]2O[C@](O)(C[C@@H](O)C[C@@H](O)[C@H](O)CC[C@@H](O)C[C@@H](O)CC(=O)O[C@H]1C)C[C@H](O)[C@H]2C(=O)O` [AMPHOTERICIN B], for which the selectivity ratio in “in vitro” was 38. The MFC came out at 5 µg/mL (≈ 5.41 µM) in the data set on Aspergillus fumigatus; 1.3 µg/mL (≈ 1.41 µM) with Candida albicans; 1.3 µg/mL (≈ 1.41 µM) against Pichia kudriavzevii; 0.63 µg/mL (≈ 0.682 µM) with Cryptococcus neoformans; 1.3 µg/mL (≈ 1.41 µM) against Nakaseomyces glabratus. Also, the MIC with Aspergillus fumigatus turned out to be 1.3 µg/mL (≈ 1.41 µM); in the data set with Candida albicans, 0.62 µg/mL (≈ 0.671 µM); against Pichia kudriavzevii it was 0.62 µg/mL (≈ 0.671 µM); against Cryptococcus neoformans, 0.63 µg/mL (≈ 0.682 µM); in the data set on Nakaseomyces glabratus it was 0.63 µg/mL (≈ 0.682 µM). The IC50 in the data set with Pichia kudriavzevii came to 0.22 µg/mL (≈ 0.238 µM); in the data set with Cryptococcus neoformans, 0.2 µg/mL (≈ 0.216 µM); in the data set with Nakaseomyces glabratus, 0.22 µg/mL (≈ 0.238 µM).

For `C[n+]1c2ccccc2cc2[n-]c3ccccc3c21` [CRYPTOLEPINE], the outcome in the data set with Saccharomyces cerevisiae [1], in the data set with Saccharomyces cerevisiae [2], with Saccharomyces cerevisiae [3], with Saccharomyces cerevisiae [6] and with Saccharomyces cerevisiae [10] was Active. Moreover, the “fold change (FC)” value in the data set with Saccharomyces cerevisiae [4] was 3.5; in the data set on Saccharomyces cerevisiae [8] it was 1.7. The outcome in the data set with Saccharomyces cerevisiae [5] and in the data set on Saccharomyces cerevisiae [7] was inactive. Moreover, the Activity with Saccharomyces cerevisiae [9] was 29%. Further, the selectivity ratio in [11] is less than 0.13. The same molecule returned an MFC against Cryptococcus neoformans greater than 25 µg/mL. For the same molecule, inhibition of growth with Cryptococcus neoformans (MIC) required 12.5 µg/mL (≈ 53.8 µM).

For the origin of these results see ChEMBL document CHEMBL3085759, “Structure-activity relationship (SAR) and preliminary mode of action studies of 3-substituted benzylthioquinolinium iodide as anti-opportunistic infection agents” (Eur J Med Chem, 2013).
